This note sets out measurements from patent US20240016941A1, “COMBINATION THERAPY” (priority 2020, published 2024).

Test [1] concerns the target T1, LasB elastase activity of dialysed supernatant from P. aeruginosa PAO1 (Pseudomonas aeruginosa, UniProt P14756).
T1 construct: Culture supernatants are recovered by centrifugation and filtrated through a 0.22 μM filter; endogenous in cells; host or cells: P. aeruginosa strain PAO1, culture supernatant, filtered and dialysed
The test is described as follows: Elastin Congo-Red assay to determine % inhibition (dialysed PAO1 supernatant). Particulars: read-out: Elastin hydrolysis % inhibition @ 25 μM inhibitor concentration. Format: biochemical. As to the method:
(§1) Experiments were therefore conducted (1) to measure the potency of inhibition of compounds of the invention against purified Pseudomonas aeruginosa LasB enzyme and also experiments were conducted (2) to measure the ability of compounds of the invention to inhibit LasB-catalysed elastin degradation. The first assay uses a commercial fluorescent synthetic peptide and purified LasB enzyme. The LasB hydrolysis kinetics are measured allowing the determination of the IC50 and Ki of the inhibitors; the second is a more physiological assay using dialysed Pseudomonas aeruginosa supernatant as source of enzyme, plus its natural substrate Elastin. It is an “end point assay” that determines the percentage of LasB inhibition by each compound for one particular time point and inhibitor concentration. Technical details are described below:
The Elastin assay uses as source of enzyme dialysed supernatant from P. aeruginosa PAO1 and the Elastin Congo-Red as substrate. The natural LasB substrate, elastin, is complexed with the congo-red dye (Elastin Congo-Red, ECR). The elastolysis activity from the culture supernatant will degrade elastin and release the congo-red dye into the supernatant. This red dye release can be measured with a spectrophotometer.
Method: To determine LasB elastase activity and assess compound inhibition, an overnight culture of P. aeruginosa strain PAO1 is diluted in LB medium. After reaching an OD600nm of 0.6, this culture is diluted and incubated for additional 18-24 hours in a shaking incubator. Culture supernatants are recovered by centrifugation and filtrated through a […] filter. These supernatants are dialysed (filtration molecules <20 kDa) into a 50 mM Tris-HCl pH 7.4, 2.5 mM CaCl2 solution at 4° C. under agitation for 24 hours. Supernatant dialysed is then mixed volume/volume with the ECR suspension (20 mg/mL of ECR in 100 mM Tris-HCl pH 7.4 buffer supplemented with 1 mM CaCl2)) supplemented with Triton X100 (final concentration of 0.01%) in presence of DMSO (positive control) and/or different concentrations of compound (routinely 50 to 1.56 μM). As a negative control, the dialysed supernatant is replaced by Tris-HCl solution (50 mM Tris-HCl pH 7.4, 2.5 mM CaCl2). The mixed reaction is then incubated overnight in a 37° C. shaking incubator. The reaction supernatant is recovered by centrifugation and the release of congo-red is measured by its absorbance at 495 nm (OD495nm).
Percentage inhibition is determined using the following equation:
((OD495 nm value of positive control−OD495nm value of negative control)−(OD495nm value of treated supernatant−OD495nm value of negative control))/(OD495nm value of positive control−OD495nm value of negative control)×100.

Test [2] addresses T2, purified LasB protein from P. aeruginosa (Pseudomonas aeruginosa, UniProt P14756).
T2 construct: purchased Merck or Charles River Laboratories
Description: Fluorometric assay to determine Ki (purified LasB, Abz-Ala-Gly-Leu-Ala-p-Nitro-Benzyl-Amide substrate). Format: biochemical. As to the method:
as §1
This assay uses commercially available substrate (Abz-Ala-Gly-Leu-Ala-p-Nitro-Benzyl-Amide (Ex: 340 nm, Em: 415 nm) from Peptide International) and purified LasB protein from P. aeruginosa (provided by Merck or Charles River Laboratories). It is performed to determine LasB elastase activity and assess compound inhibition in 96-well plate format. All compounds of Formula (I) were assessed using the method described below.
Method: 10 to 140 ng/ml purified LasB is incubated with 250 μM Abz-Ala-Gly-Leu-Ala-p-Nitro-Benzyl-Amide in 50 mM Tris-HCl pH 7.4, 2.5 mM CaCl2), 0.01% of Triton X100 at 37° C. LasB activity (corresponding to fluorescence emission induced by substrate hydrolysis) is measured over 30 min at 37° C. with a fluorescence plate reader such as the Perkin Elmer Envision or similar. Different range of inhibitor concentrations are routinely assessed depending of inhibitor potency from 0.0016 to 200 μM (2-fold dilutions series) in order to determine IC50.
The equation used to calculate the Ki from IC50 is: Ki=IC50/(1+([S]/Km)) where [S]=250 μM and Km=214 μM.

Where only a bound is given, the exact number is not on record here.

T1 sequence (P14756 198-498): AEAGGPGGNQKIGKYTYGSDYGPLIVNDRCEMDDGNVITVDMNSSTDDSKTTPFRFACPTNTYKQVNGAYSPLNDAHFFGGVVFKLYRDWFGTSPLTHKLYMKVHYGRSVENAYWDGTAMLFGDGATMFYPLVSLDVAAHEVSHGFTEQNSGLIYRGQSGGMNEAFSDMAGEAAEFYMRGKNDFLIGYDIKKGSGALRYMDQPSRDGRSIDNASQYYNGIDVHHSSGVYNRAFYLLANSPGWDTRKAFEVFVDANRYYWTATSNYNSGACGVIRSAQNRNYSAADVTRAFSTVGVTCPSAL
T2 sequence (P14756 198-498): as above

In general, Ki refers to the equilibrium dissociation constant of an inhibitor or competing ligand from its target. High values mean a looser hold on the target, low ones a stronger hold on the target. As for `COc1cc2sc(CNC(=O)C3(CC(=O)O)Cc4ccccc4C3)nc2cc1C(=O)N1CCOC(CN(C)C)C1` (centres unmarked) [Example 40, 2-[2-[[5-[2-[(dimethylamino)methyl]morpholine-4-carbonyl]-6-methoxy-1,3-benzothiazol-2-yl]methylcarbamoyl]indan-2-yl]acetic acid], the inhibition at 25 µM in test [1] was in the range of 60 to 80%. In test [2], the inhibition constant (Ki) was 50 to 200 nM.

In turn, `COc1cc2sc(CNC(=O)C3(CC(=O)[O-])Cc4ccccc4C3)nc2cc1OCCOCC[N+](C)(C)C` [Example 54, 2-[2-[[6-methoxy-5-[2-[2-(trimethylammonio)ethoxy]ethoxy]-1,3-benzothiazol-2-yl]methylcarbamoyl]indan-2-yl]acetate] showed a Ki in test [2] of 50 to 100 nM.

`O=C(O)CC1(C(=O)NCc2nc3ccc(OCCCO)cc3s2)Cc2ccccc2C1` [Example 50, 2-[2-[[6-(3-hydroxypropoxy)-1,3-benzothiazol-2-yl]methylcarbamoyl]indan-2-yl]acetic acid] registered an inhibitory constant (Ki) in test [2] of 50 to 100 nM.

Compound `NS(=O)(=O)c1cccc2sc(CNC(=O)C3(CC(=O)O)Cc4ccccc4C3)nc12` [Example 4, 2-[2-[(4-sulfamoyl-1,3-benzothiazol-2-yl)methylcarbamoyl]indan-2-yl]acetic acid] registered a Ki in test [2] of 200 to 10000 nM.

In test [2], `COc1cc2sc(CNC(=O)C3(CC(=O)O)Cc4ccccc4C3)nc2cc1OCCCN(C)C` [Example 52, 2-[2-[[5-[3-(dimethylamino)propoxy]-6-methoxy-1,3-benzothiazol-2-yl]methylcarbamoyl]indan-2-yl]acetic acid] returned a Ki of 50 to 100 nM.

Turning to `COc1cc2sc(CNC(=O)C3(CC(=O)[O-])Cc4ccccc4C3)nc2cc1OCC1CC[N+](C)(C)CC1` [Example 17, 2-[2-[[5-[(1,1-dimethylpiperidin-1-ium-4-yl)methoxy]-6-methoxy-1,3-benzothiazol-2-yl]methylcarbamoyl]indan-2-yl]acetate], the inhibition at 25 µM in test [1] was 60 to 80%. The inhibition constant Ki in test [2] lay in the range of 50 to 200 nM.

On to `COc1cc2sc(CNC(=O)C3(CC(=O)[O-])Cc4cc(F)c(F)cc4C3)nc2cc1OCCC[N+](C)(C)CCO` [Example 21, 2-[5,6-difluoro-2-[[5-[3-[2-hydroxyethyl(dimethyl)ammonio]propoxy]-6-methoxy-1,3-benzothiazol-2-yl]methylcarbamoyl]indan-2-yl]acetate], for which the inhibition at 25 µM in test [1] was above 80%. Besides, the Ki in test [2] is below 50 nM.

`COc1cc2sc(CNC(=O)C3(CC(=O)O)Cc4cc(F)c(F)cc4C3)nc2cc1OCCN1CCOCC1` [Example 10, 2-[5,6-difluoro-2-[[6-methoxy-5-(2-morpholinoethoxy)-1,3-benzothiazol-2-yl]methylcarbamoyl]indan-2-yl]acetic acid]: the inhibition at 25 µM in test [1] was above 80%. Moreover, the Ki in test [2] was below 50 nM.

As to `COc1cc2sc(CNC(=O)C3(CC(=O)[O-])Cc4ccccc4C3)nc2cc1C(=O)N1CC([N+](C)(C)C)C1` [Example 42, 2-[2-[[6-methoxy-5-[3-(trimethylammonio)azetidine-1-carbonyl]-1,3-benzothiazol-2-yl]methylcarbamoyl]indan-2-yl]acetate], in test [1], the inhibition at 25 µM is 60 to 80%. Moreover, the Ki in test [2] was 200 to 10000 nM.

On to `COc1cc2sc(CNC(=O)C3(CC(=O)O)Cc4ccccc4C3)nc2cc1OCC(=O)N1CCN(C)CC1` [Example 8, 2-[2-[[6-methoxy-5-[2-(4-methylpiperazin-1-yl)-2-oxo-ethoxy]-1,3-benzothiazol-2-yl]methylcarbamoyl]indan-2-yl]acetic acid], for which the inhibition at 25 µM in test [1] fell in the range of 60 to 80%. In addition, the Ki in test [2] was 50 to 200 nM.

As to `CN(C)C1CN(C(=O)c2ccc3sc(CNC(=O)C4(CC(=O)O)Cc5ccccc5C4)nc3c2)C1` [Example 32, 2-[2-[[5-[3-(dimethylamino)azetidine-1-carbonyl]-1,3-benzothiazol-2-yl]methylcarbamoyl]indan-2-yl]acetic acid], the inhibition at 25 µM in test [1] is 60 to 80%. Also, the Ki in test [2] was 50 to 200 nM.

Take `CS(=O)(=O)c1cccc2sc(CNC(=O)C3(CC(=O)O)Cc4ccccc4C3)nc12` [Example 7, 2-[2-[(4-methylsulfonyl-1,3-benzothiazol-2-yl)methylcarbamoyl]indan-2-yl]acetic acid]: in test [2], the Ki lay in the range of 200 to 10000 nM.

On to `COc1cc2sc(CNC(=O)C3(CC(=O)[O-])Cc4ccccc4C3)nc2cc1C(=O)N1CCC([N+](C)(C)C)CC1` [Example 39, 2-[2-[[6-methoxy-5-[4-(trimethylammonio)piperidine-1-carbonyl]-1,3-benzothiazol-2-yl]methylcarbamoyl]indan-2-yl]acetate], for which, in test [2], the Ki was 200 to 10000 nM.

Compound `COc1cc2sc(CNC(=O)C3(CC(=O)[O-])Cc4cc(F)c(F)cc4C3)nc2cc1OCC[N+](C)(C)C` [Example 56, 2-[5,6-difluoro-2-[[6-methoxy-5-[2-(trimethylammonio)ethoxy]-1,3-benzothiazol-2-yl]methylcarbamoyl]indan-2-yl]acetate] had a Ki in test [2] of 50 to 100 nM.

In test [2], `CCCOc1ccc2nc(CNC(=O)C3(CC(=O)O)Cc4ccccc4C3)sc2c1` [Example 51, 2-[2-[(6-propoxy-1,3-benzothiazol-2-yl)methylcarbamoyl]indan-2-yl]acetic acid] yielded a Ki of 50 to 100 nM.

In turn, `CN(C)CCCN1CCN(C(=O)c2ccc3sc(CNC(=O)C4(CC(=O)O)Cc5ccccc5C4)nc3c2)CC1` [Example 31, 2-[2-[[5-[4-[3-(dimethylamino)propyl]piperazine-1-carbonyl]-1,3-benzothiazol-2-yl]methylcarbamoyl]indan-2-yl]acetic acid] registered a Ki in test [2] of 200 to 10000 nM.

In the case of `O=C(O)CC1(C(=O)NCc2nc3c(S(=O)(=O)N4CCNCC4)cccc3s2)Cc2ccccc2C1` [Example 5, 2-[2-[(4-piperazin-1-ylsulfonyl-1,3-benzothiazol-2-yl)methylcarbamoyl]indan-2-yl]acetic acid], the Ki in test [2] is 200 to 10000 nM.

Turning to `CN(C)CCNC(=O)c1ccc2sc(CNC(=O)C3(CC(=O)O)Cc4ccccc4C3)nc2c1` [Example 28, 2-[2-[[5-[2-(dimethylamino)ethylcarbamoyl]-1,3-benzothiazol-2-yl]methylcarbamoyl]indan-2-yl]acetic acid], the Ki in test [2] was in the range of 200 to 10000 nM.

The compound `CN(C)C1CN(C(=O)c2ccc3nc(CNC(=O)C4(CC(=O)O)Cc5ccccc5C4)sc3c2)C1` [Example 26, 2-[2-[[6-[3-(dimethylamino)azetidine-1-carbonyl]-1,3-benzothiazol-2-yl]methylcarbamoyl]indan-2-yl]acetic acid] returned a Ki in test [2] of 200 to 10000 nM.

In turn, `CN1CCN(C(=O)c2ccc3nc(CNC(=O)C4(CC(=O)O)Cc5ccccc5C4)sc3c2)CC1` [Example 29, 2-[2-[[6-(4-methylpiperazine-1-carbonyl)-1,3-benzothiazol-2-yl]methylcarbamoyl]indan-2-yl]acetic acid] came in with a Ki in test [2] of 200 to 10000 nM.

For the compound `CN(C)CCNC(=O)c1ccc2nc(CNC(=O)C3(CC(=O)O)Cc4ccccc4C3)sc2c1` [Example 30, 2-[2-[[6-[2-(dimethylamino)ethylcarbamoyl]-1,3-benzothiazol-2-yl]methylcarbamoyl]indan-2-yl]acetic acid], the Ki in test [2] lay within 200 to 10000 nM.

`O=C(O)CC1(C(=O)NCc2nc3c(C(=O)N4CCCC4)cccc3s2)Cc2ccccc2C1` [Example 2, 2-[2-[[4-(pyrrolidine-1-carbonyl)-1,3-benzothiazol-2-yl]methylcarbamoyl]indan-2-yl]acetic acid] returned a Ki in test [2] of 200 to 10000 nM.
